# Reference: paper PMC10017790 (Nature Communications, 2023)
# Tests used:
# PaPPAR = tested on: T1, PaPPAR; type: biochemical, Petunia axillaris; conditions: 2 mM NADPH, 0.1 M Tris-HCl pH 8.0, 1 h
# T1 construct: gene PPAR
# CaPPAR = type: biochemical, Capsicum annuum; conditions: 2 mM NADPH, 0.1 M Tris-HCl pH 8.0, 1 h
# AbLS = molecular target: T2, AbLS (Atropa belladonna, UniProt A0A3B6XRA5); conditions: 1 mM tropine and 1 mM phenyllactate infiltrated; AbUGT1 coexpressed; 24 h
# T2 construct: gene LS
# SlTRI = molecular target: T3, SlTRI (Solanum lycopersicum, UniProt A0A3Q7IM65); type: biochemical; conditions: 200 uM NADPH, 0.1 M potassium phosphate pH 6.4, 30 C
# T3 construct: gene LOC101265293; CDS cloned from cDNA into pET28a; recombinant His-tagged, Ni-NTA purified; Leu159 printed
# O=C(O)C(=O)Cc1ccccc1 = test: purified protein; conditions: 2 mM NADPH, 0.1 M Tris-HCl pH 8.0, 1 h
# T3 sequence (A0A3Q7IM65 9-272): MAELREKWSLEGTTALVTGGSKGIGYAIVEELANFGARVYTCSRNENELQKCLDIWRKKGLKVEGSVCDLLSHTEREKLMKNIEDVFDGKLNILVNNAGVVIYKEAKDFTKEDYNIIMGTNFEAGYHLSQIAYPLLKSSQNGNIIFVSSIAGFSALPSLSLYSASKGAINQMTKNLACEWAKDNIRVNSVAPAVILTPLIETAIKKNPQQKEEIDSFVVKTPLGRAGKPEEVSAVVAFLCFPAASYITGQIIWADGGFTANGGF
# T2 sequence (A0A3B6XRA5 34-476 limits assumed): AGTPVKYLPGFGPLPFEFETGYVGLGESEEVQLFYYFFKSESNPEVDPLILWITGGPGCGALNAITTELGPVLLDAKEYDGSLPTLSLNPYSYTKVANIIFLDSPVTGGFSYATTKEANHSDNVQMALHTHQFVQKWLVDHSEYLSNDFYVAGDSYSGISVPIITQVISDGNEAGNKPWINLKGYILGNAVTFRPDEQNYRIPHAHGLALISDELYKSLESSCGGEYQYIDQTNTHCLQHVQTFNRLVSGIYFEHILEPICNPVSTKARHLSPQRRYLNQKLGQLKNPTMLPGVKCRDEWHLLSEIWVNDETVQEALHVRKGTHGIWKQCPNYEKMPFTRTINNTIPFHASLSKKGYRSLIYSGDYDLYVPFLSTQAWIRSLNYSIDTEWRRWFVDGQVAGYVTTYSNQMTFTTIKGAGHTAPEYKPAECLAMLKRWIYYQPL
compound,measurement,setting,value
O=C(O)C(=O)Cc1ccccc1 [phenylpyruvic acid],Km,PaPPAR,2650 ± 374 µM
same,Km,CaPPAR,3020 ± 485 µM
CN1[C@@H]2CC[C@H]1C[C@@H](O)C2 [tropine],"transient expression in N. benthamiana leaves, littorine by UPLC-MS",AbLS,we detected littorine in tobacco leaves expressing DsLS and AbLS
CN1[C@@H]2CC[C@H]1CC(=O)C2 [tropinone],Km,SlTRI,TRI from tomato also showed TRI activity
AbPPAR (Atropa belladonna),Km,O=C(O)C(=O)Cc1ccccc1,2085 ± 461.3 µM
same,kcat,O=C(O)C(=O)Cc1ccccc1,0.0098 ± 0.00074 s⁻¹
SlPPAR (Solanum lycopersicum),Km,O=C(O)C(=O)Cc1ccccc1,1380 ± 130 µM
same,kcat,O=C(O)C(=O)Cc1ccccc1,0.03355 ± 0.00253 s⁻¹
